According to Sander's compilation of Henry's law constants (doi:10.1002/jsfa.1137):

Assay: Henry solubility constant Hcp at 310 K (mol/(m3 Pa))
Details: reference: van Ruth et al. (2002)

CCCCCCO [1-hexanol]
Henry solubility constant Hcp at 310 K: 0.25

CCCO [1-propanol]
Henry solubility constant Hcp at 310 K: 0.32

CCCCCCCCC(C)=O [2-decanone]
Henry solubility constant Hcp at 310 K: 0.018

CCCCCC(C)=O [2-heptanone]
Henry solubility constant Hcp at 310 K: 0.039

CCCCCCCC(C)O (stereo not given) [2-nonanol]
Henry solubility constant Hcp at 310 K: 0.065

CCCCCCC(C)=O [2-octanone]
Henry solubility constant Hcp at 310 K: 0.029

CCCC(C)O (stereo not given) [2-pentanol]
Henry solubility constant Hcp at 310 K: 0.3

CC(C)CCO [3-methyl-1-butanol]
Henry solubility constant Hcp at 310 K: 0.33

CCCCOC(C)=O [butyl ethanoate]
Henry solubility constant Hcp at 310 K: 0.028

CSC [dimethyl sulfide]
Henry solubility constant Hcp at 310 K: 0.0064

CCCC(=O)OCC [ethyl butanoate]
Henry solubility constant Hcp at 310 K: 0.021

CCOC(C)=O [ethyl ethanoate]
Henry solubility constant Hcp at 310 K: 0.039

CCCCCCC=O [heptanal]
Henry solubility constant Hcp at 310 K: 0.02

CCCCCCCC=O [octanal]
Henry solubility constant Hcp at 310 K: 0.021

CCCOC(C)=O [propyl ethanoate]
Henry solubility constant Hcp at 310 K: 0.039
